Measured values from US8067435B2, “Nitrogen-containing heterocyclic compounds, their preparation and their use as antibacterial drugs” (AstraZeneca AB, priority 2008, dated 2011).
Converted amounts (≈) assume the structure as drawn.

Tested on: Pseudomonas aeruginosa (1771 Strain of the wild type)
Experiment: Activity in vitro, method of dilutions in a liquid medium (MIC)
Assay type: cell-based
Conditions: Pseudomonas aeruginosa 1771 wild type, liquid medium dilution, 24 hrs incubation at 37° C.; for MIC: read-out: MIC (μg/mL) 24 h (P, aerug, 1771)
Experimental: Activity in vitro, method of dilutions in a liquid medium: A series of tubes is prepared in which the same amount of sterile nutritive medium is distributed, increasing amounts of the product to be studied are distributed in each tube, and each tube is then sown with a bacterial strain. After incubation for 24 hrs in the oven at 37° C., inhibition of growth is appreciated by trans-illumination, which allows determination of the minimum inhibitory concentrations (MICs) expressed in μg/ml.
Thus tests are carried out with the products of Examples 1 to 8 in comparison with products of Examples 7, 9, 11 and 45 of application WO 04/052891. […] The activity difference on Pseudomonas aeruginosa between the products of the invention and the closest products from the prior art is located according to the products in a range from 16 to more than 500.
Activity on Pseudomonas aeruginosa (1771 Strain of the wild type)

SMILES | MIC (μg/mL) 24 h (P, aerug, 1771) | MIC
NC[C@@H]1c2nn(C(N)=O)cc2[C@H]2CN1C(=O)N2OS(=O)(=O)O.O=C([O-])C(F)(F)F.[Na+] (relative stereo) [Ex 1, Sodium trifluoroacetate salt of trans 8-(aminomethyl)-2-carbamoyle-4,8-dihydro-5-(sulfooxy)-4,7-methano-7H-pyrazolo[3,4-e][1,3]diazepin-6(5H)-one] | 0.25 µg/mL | 
CN(C)C(=O)n1cc2c(n1)[C@@H](CN)N1C[C@H]2N(OS(=O)(=O)O)C1=O.O=C([O-])C(F)(F)F.[Na+] (relative stereo) [Ex 2, Sodium trifluoroacetate salt of trans 8-(aminomethyl)-2-dimethylcarbamoyle-4,8-dihydro-5-(sulfooxy)-4,7-methano-7H-pyrazolo[3,4-e][1,3]diazepin-6(5H)-one] | 2 µg/mL | 
CNC(=O)n1cc2c(n1)[C@@H](CN)N1C[C@H]2N(OS(=O)(=O)O)C1=O.O=C([O-])C(F)(F)F.[Na+] (relative stereo) [Ex 3, Sodium trifluoroacetate salt of trans 8-(aminomethyl)-2-methylcarbamoyl-4,8-dihydro-5-(sulfooxy)-4,7-methano-7H-pyrazolo[3,4-e][1,3]diazepin-6(5H)-one] | 2 µg/mL | 
NCCn1ncc2c1[C@@H](CN)N1C[C@H]2N(OS(=O)(=O)O)C1=O.O=C([O-])C(F)(F)F.[Na+] (relative stereo) [Ex 4, Sodium trifluoroacetate salt of trans 8-(aminomethyl)-1-(2-amino-ethyl)-4,8-dihydro-5-(sulfooxy)-4,7-methano-7H-pyrazolo[3,4-e][1,3]diazepin-6(5H)-one] | 0.25 µg/mL | 
NCCn1cc2c(n1)[C@@H](CN)N1C[C@H]2N(OS(=O)(=O)O)C1=O.O=C([O-])C(F)(F)F.[Na+] (relative stereo) [Ex 5, Sodium trifluoroacetate salt of trans 8-(aminomethyl)-2-(2-amino-ethyl)-4,8-dihydro-5-(sulfooxy)-4,7-methano-7H-pyrazolo[3,4-e][1,3]diazepin-6(5H)-one] | 0.25 µg/mL | 
NC[C@@H]1c2nn(-c3ccccn3)cc2[C@H]2CN1C(=O)N2OS(=O)(=O)O.O=C([O-])C(F)(F)F.[Na+] (relative stereo) [Ex 6, Sodium trifluoroacetate salt of trans 8-(aminomethyl)-2-(2-pyridinyl)-4,8-dihydro-5-(sulfooxy)-4,7-methano-7H-pyrazolo[3,4-e][1,3]diazepin-6(5H)-one] | 8 µg/mL | 
NC[C@@H]1c2nn(CC(=O)O)cc2[C@H]2CN1C(=O)N2OS(=O)(=O)O.O=C([O-])C(F)(F)F.[Na+] (relative stereo) [Ex 7, Sodium trifluoroacetate salt of trans-8-(aminomethyl)-5,6-dihydro-6-oxo-5-(sulfooxy)-4H-4,7-methanopyrazolo[3,4-e][1,3]diazepin-2(8H)-acetic acid] | 4 µg/mL | 
NC[C@@H]1c2nn(CC(N)=O)cc2[C@H]2CN1C(=O)N2OS(=O)(=O)O.O=C([O-])C(F)(F)F.[Na+] (relative stereo) [Ex 8, Sodium trifluoroacetate salt of trans-8-(aminomethyl)-5,6-dihydro-6-oxo-5-(sulfooxy)-4H-4,7-methanopyrazolo[3,4-e][1,3]diazepin-2(8H)-acetamide] | 0.5 µg/mL | 
CC(C)(O/N=C(\C(=O)N[C@@H]1C(=O)N2C(C(=O)[O-])=C(C[n+]3ccccc3)CS[C@H]12)c1csc(N)n1)C(=O)O [CAZ, Ceftazidime, reference compound] |  | 1 µg/mL (≈ 1.83 µM)
C[C@@H](O)[C@H]1C(=O)N2C(C(=O)O)=C(SCCN=CN)C[C@H]12 [IMP, Imipenem, reference compound] |  | 1 µg/mL (≈ 3.34 µM)
